From patent US12583911B2, “Human immunodeficiency virus GP120 binding proteins” (ViiV Healthcare UK (No.5) Limited, priority 2022, dated 2026)

Tests used:
[1] = Melting temperature (Tm) of soluble CD4 domains, Prometheus System; format: physicochemical; conditions: soluble CD4 domain with C-terminal 6xHis tag
Description: The best performing variants (SEQ ID NOs: 5-21) were fused with 6×His tag at their C-termini, expressed and purified from mammalian cells using methods as described in Example 1, except that purification was via a Ni-NTA resin (Cytiva, Marlborough MA) instead of Mabselect SuRe column, with standard protocol from the vendor.
These purified CD4 D1 variants (with C-terminal 6xHis tag) were then evaluated to determine their melting temperature (Tm, using Prometheus System, NanoTemper, München Germany), which indicates thermal stability, as well as their anti-viral activity against HIV-1 pseudotyped virus (see Example 2 above for methods using ACTOne cells).

[2] = system: panel of HIV-1 envelopes (pseudotyped HIV-1 virus); experiment: PSV assay (ACTOne cells), HIV-1 envelopes; format: cell-based
Description: (§1) The anti-viral activity of the antigen binding proteins was measured in a pseudotyped virus (PSV) assay.
(§2) PSV was produced in HEK-293T cells (ATCC, Manassas VA) by co-transfecting expression plasmids encoding the HIV-1 gp160 envelope gene and an HIV-1 backbone plasmid using TRANSIT-2020 transfection reagent (Mirus Bio, Madison WI). A panel of HIV-1 PSVs expressing different gp160 envelope trimers was generated to evaluate the effectiveness of the antigen binding proteins of the invention against a wide spectrum of HIV-1 strains.
(§3) The genome of PSV used in this assay contains a luciferase gene that is expressed once the virus enters cells. Accordingly, the luminescence signal (after adding a substrate of luciferase) can be used to determine the level of viral infection.
(§4) The 50% tissue culture infectious dose (TCID) of a single thawed aliquot of each batch of PSV was determined in ACTOne cells. The ACTOne cell-line used in this assay was derived in-house from a genetically engineered 293T cell clone that expresses CD4, CXCR4, and CCR5. Cells were maintained in growth medium composed of Dulbecco's modified Eagle's medium (DMEM, Life Technologies) at 37° C. in a humidified 5% CO2-95% air environment. Cell monolayers were split by treatment with Trypsin-EDTA (0.05%).
(§5) To run the anti-viral assay, ACTOne cells were detached by treating the cell culture flask with trypsin (trypsinization) and resuspended in growth medium containing 2% of DMSO to a density of 2.5×10^5 cells/ml. One hundred μl of such cells was added to 10 μl of antigen binding protein pre-loaded in a 96-well plate. Ninety μl of PSV was then added to each well. The assay plates were incubated at 37° C. in a humidified incubator at 5% CO2 level. Plates were developed after 72 hours of incubation by adding 50 μl of BRIGHTGLO luciferase reagent (Promega, Madison WI) to each well, and transferring the plates to an ENVISION multilabel plate reader (PerkinElmer, Waltham MA) to measure the luminescence and determine the level of virus that had infected the cells. The higher the luminescence signal, the higher the level of infection.

[3] = system: NL4-3 (NLRepRluc replicating reporter virus); experiment: Replicating virus assay using NLRepRluc virus (NL4-3) in MT-2 cells; format: cell-based, HIV-1; conditions: NL4-3, replicating virus assay
Source text: All clinical and laboratory isolates were originally obtained from the NIH AIDS Reagent Program (currently NIH HIV Reagent Program, https:hivreagentprogram.org/). The proviral clone of NL4-3 (obtained from NIH) was used to make the replicating reporter virus NLRepRluc, in which a section of the nef gene from the proviral clone of NL4-3 was replaced with the Renilla luciferase gene. Virus was produced through transfection of HEK293T cells using Lipofectamine Plus (Invitrogen, Carlsbad, CA), according to the manufacturer's instructions. […]
The NLRepRluc was used to infect MT-2 cells at a multiplicity of 0.01 for 1 hour before adding the proteins to the 96-well plates. […] After 4 days of incubation, cells were processed and quantitated for virus growth by the amount of expressed luciferase. Luciferase was quantitated using the ENDUREN substrate from Promega (Madison, WI) according to the manufacturer's instructions. Luciferase activity was measured immediately on an ENVISION multilabel plate reader (PerkinElmer, Waltham MA). EC50 values were calculated by comparing the amount of luciferase produced in the presence of antigen binding protein compared to wells where no antigen binding protein (DMSO control) was added. […]

[4] = system: HIV-2 Env-pseudotypes (HIV-2-AID, HIV-2-ATM88, HIV-2-HCC-01); experiment: PSV assay (ACTOne cells), HIV-2 envelopes; format: cell-based
Description: as §1, §2, §3, §4, §5
HIV-2 differs from HIV-1 in that it originates from the transmission of simian immunodeficiency virus (SIV) from sooty mangabeys (SIVsmm) to human (Gao et al, J Virol. 1994; 68 (11): 7433-7447) whilst HIV-1 stems from the transmission from chimpanzees and western gorillas (HIV-1 group M and O, respectively). HIV-2 can also cause AIDS but is far less pathogenic and wide-spread than HIV-1 (de Silva et al, Trends Microbiol. 2008; 16 (12): 588-595; Da Silva et al, AIDS. 2008; 22 (10): 1195-1202). Though also using CD4 for infection (Sattentau et al, AIDS. 1988; 2 (2): 101-105), HIV-2 shares only 40% identity in the gp160 amino acid sequence with HIV-1, and is therefore less sensitive or insensitive to HIV-1 envelope-directed bnAbs (Kong et al, JVI 2012; 86 (2): 947-960).

[5] = system: HIV NL4-3 virus; experiment: In vitro resistance barrier (viral breakthrough in MT2 cells); format: cell-based, HIV-1; conditions: HIV NL4-3 in MT2 cells
Description: To assess the resistance barrier of the bispecific molecules, we examined the relative rates at which HIV NL4-3 virus can escape inhibition by a panel of antibodies versus a DMSO control.
MT2 cells (2.0×10^5/well in RPMI 1640+[…] penicillin and streptomycin+10 mM HEPES buffer pH 7.55+2 mM L-glutamine. +0.2% DMSO) were pre-infected at an MOI (multiplicity of infection) of 0.005 for 2.5 hours and then pelleted to remove unbound virus particles. One mL of infected cells was added to each well of a 24 well plate.
Every 3-4 days images of the wells were captured and 1 ml of each well is removed and replaced by fresh preparations of each condition. This process was continued until there was viral breakthrough (observed cytopathic effect (CPE)>80%) or until there was a confirmed elimination of infected cells (via challenged elimination). When either condition was achieved, the sample was collected as pellet and supernatant (via centrifugation) and stored at −80° C. until genotypic analysis was performed to confirm the presence of resistance mutations. The days from infection to breakthrough were used to estimate the resistance barrier of a certain molecule. The longer it takes the virus to develop CPE, which indicates resistance, the higher the resistance barrier is.

[6] = envelope CAP45.2.00.G3, PSV assay
[7] = envelope X1632_S2_B10, PSV assay
[8] = envelope HIV-2-AID, PSV assay, ACTOne cells
[9] = envelope HIV-2-ATM88, PSV assay
[10] = envelope HIV-2-HCC-01, PSV assay

D1m-K8V: soluble CD4 D1 variant of mD1.22 with K8V, SEQ ID NO:5, 6xHis tagged [Molecule D1m-K8V]
Tm (° C.) [1]: 77.1 °C

D1m-K21C-G65C: soluble CD4 D1 variant of mD1.22 with K21C and G65C, SEQ ID NO:15, 6xHis tagged
Tm (° C.) [1]: 80.1 °C

D1mD2_His: soluble CD4 D1D2 variant mD1.22-D2 (SEQ ID NO:2) plus C-terminal 6xHis tag [Molecule D1mD2_His, reference compound]
IC50 ([2]; envelope 42368, PSV assay): 7.29 nM
IC50 ([2]; envelope BJOX2000, PSV assay): 33.4 nM
IC50 [2, 6]: > 500 nM
IC50 ([2]; envelope CH119, PSV assay): 120 nM
IC50 ([2]; envelope HXB2, PSV assay): 0.07 nM
IC50 ([2]; envelope LAI, PSV assay): 5.41 nM
IC50 ([2]; envelope NL4-3, PSV assay): 0.74 nM
IC50 ([2]; envelope T278.50, PSV assay): 16 nM
IC50 ([2]; envelope TRO11, PSV assay): 17.3 nM
IC50 [2, 7]: 14.9 nM

D1m-E91Q: soluble CD4 D1 variant of mD1.22 with E91Q, SEQ ID NO:6, 6xHis tagged [Molecule D1m-E91Q]
Tm (° C.) [1]: 72.4 °C

D1m-T11C-K72C: soluble CD4 D1 variant of mD1.22 with T11C and K72C, SEQ ID NO:12, 6xHis tagged
Tm (° C.) [1]: 79.9 °C

D1m_His: soluble human CD4 D1 variant mD1.22 (SEQ ID NO:4) plus C-terminal 6xHis tag [Molecule D1m_His, reference compound]
EC50 [3]: 0.23 nM
IC50 [4, 8]: 104 nM
IC50 [4, 9]: 3.93 nM
IC50 [4, 10]: > 500 nM
Tm (° C.) [1]: 68.2 °C
IC50 ([2]; envelope 42368, PSV assay): 4.32 nM
IC50 ([2]; envelope BJOX2000, PSV assay): 70.9 nM
IC50 [2, 6]: 131 nM
IC50 ([2]; envelope CC1/85, PSV assay): 7.02 nM
IC50 ([2]; envelope CH119, PSV assay): 90.7 nM
IC50 ([2]; envelope LAI, PSV assay): 8.79 nM
IC50 ([2]; envelope T278.50, PSV assay): 3.99 nM
IC50 ([2]; envelope TRO11, PSV assay): 68.4 nM
IC50 [2, 7]: 16.2 nM
IC50 ([2]; envelope ZM106.9, PSV assay): 26 nM
Average days before CPE ([5]; group 20x EC50): 4 days
Average days before CPE ([5]; group 30x EC50): 5 days
Average days before CPE ([5]; group 40x EC50): 7 days

D1m-K8C-G99C: soluble CD4 D1 variant of mD1.22 with K8C and G99C, SEQ ID NO:11, 6xHis tagged [Molecule D1m-K8C-G99C]
Tm (° C.) [1]: 88.8 °C

D1m-H27C-G38C: soluble CD4 D1 variant of mD1.22 with H27C and G38C, SEQ ID NO:14, 6xHis tagged
Tm (° C.) [1]: 90.1 °C

D1m-E13C-I70C: soluble CD4 D1 variant of mD1.22 with E13C and I70C, SEQ ID NO:13, 6xHis tagged
Tm (° C.) [1]: 78.8 °C

D1m-E87G: soluble CD4 D1 variant of mD1.22 with E87G, SEQ ID NO:8, 6xHis tagged [Molecule D1m-E87G]
Tm (° C.) [1]: 71.9 °C

D1m-N52W: soluble CD4 D1 variant of mD1.22 with N52W, SEQ ID NO:9, 6xHis tagged [Molecule D1m-N52W]
Tm (° C.) [1]: 72 °C

D1m-K8I: soluble CD4 D1 variant of mD1.22 with K8I, SEQ ID NO:10, 6xHis tagged [Molecule D1m-K8I]
Tm (° C.) [1]: 75.9 °C

D1m-E91H: soluble CD4 D1 variant of mD1.22 with E91H, SEQ ID NO:7, 6xHis tagged [Molecule D1m-E91H]
Tm (° C.) [1]: 72.6 °C

D1m-K8C-G99C_Fc: CD4 D1m-K8C-G99C domain fused to human Fc, SEQ ID NO:158; CD4 control
IC50 [4, 8]: 24.4 nM
IC50 [4, 9]: 2.72 nM
IC50 ([4]; envelope HIV-2-HCC-01, ACTOne cells): > 300 nM
IC50 [4, 10]: > 300 nM
IC50 ([2]; envelope 93UG065, PSV assay): 143 nM
IC50 ([2]; envelope 246F3, PSV assay): 4.28 nM
IC50 ([2]; envelope 0260.v5.c36, PSV assay): 119 nM
IC50 ([2]; envelope 398F1, PSV assay): 90.5 nM
IC50 ([2]; envelope 928_28, PSV assay): 0.77 nM
IC50 ([2]; envelope 3326_V4_C3): > 500 nM
IC50 ([2]; envelope 3326_V4_C3, PSV assay): > 500 nM
IC50 ([2]; envelope 3468_V1_C12): 64.2 nM
IC50 ([2]; envelope 3468_V1_C12, PSV assay): 64.2 nM
IC50 ([2]; envelope 3637_V5_C3): > 500 nM
IC50 ([2]; envelope 3637_V5_C3, PSV assay): > 500 nM
IC50 ([2]; envelope 6471_V1_C16, PSV assay): 5.07 nM
IC50 ([2]; envelope 25710, PSV assay): 1.32 nM
IC50 ([2]; envelope 42368): 1.58 nM
IC50 ([2]; envelope 42368, PSV assay): 1.58 nM
IC50 ([2]; envelope 620345_C1, PSV assay): 99.3 nM
IC50 ([2]; envelope BJOX2000, PSV assay): 2.34 nM
IC50 ([2]; envelope CAP45.2.00.G3): 20.5 nM
IC50 [2, 6]: 20.5 nM
IC50 ([2]; envelope CC1/85): 1.98 nM
IC50 ([2]; envelope CC1/85, PSV assay): 1.98 nM
IC50 ([2]; envelope CE0217, PSV assay): 2.53 nM
IC50 ([2]; envelope CE1176, PSV assay): 4.22 nM
IC50 ([2]; envelope CH119, PSV assay): 3.25 nM
IC50 ([2]; envelope CNE8, PSV assay): 347 nM
IC50 ([2]; envelope CNE55, PSV assay): 41.8 nM
IC50 ([2]; envelope JR-CSF, PSV assay): 5.47 nM
IC50 ([2]; envelope JRFL, PSV assay): 1.12 nM
IC50 ([2]; envelope Q461_E2): 11.8 nM
IC50 ([2]; envelope Q461_E2, PSV assay): 11.8 nM
IC50 ([2]; envelope T278.50): 1.43 nM
IC50 ([2]; envelope T278.50, PSV assay): 1.43 nM
IC50 ([2]; envelope TH976_17, PSV assay): 39 nM
IC50 ([2]; envelope TRO11, PSV assay): 147 nM
IC50 ([2]; envelope X1632, PSV assay): 1.82 nM
IC50 ([2]; envelope X2088.C9): 9.2 nM
IC50 ([2]; envelope X2088.C9, PSV assay): 9.2 nM
IC50 ([2]; envelope X2278, PSV assay): 44.6 nM
IC50 ([2]; envelope YU-2, PSV assay): 0.2 nM
IC50 ([2]; envelope ZM106.9): 15.1 nM
IC50 ([2]; envelope ZM106.9, PSV assay): 15.1 nM
